Measurements from the supplement of paper PMC10307832.

Columns and labels:
Assay in all cases: relative viability (nuclei count vs DMSO), 5 days (fraction); higher = more cells survive
NCI-H596 = tested on: NCI-H596
Procedure, shortened: (§1)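 Lung cancer cell lines in 1536-well plates were dosed by pin tool the day after seeding, either with one drug alone or with a fixed anchor-drug dose plus five library-drug doses (not always all listed) in √10 steps. After 5 days, cells were fixed and their nuclei stained in one step (final 0.05% Triton X-100, 1% formaldehyde, 1 ug/ml Hoechst), then counted on 4× images. Relative viability is the nuclei count in treated wells divided by that in vehicle wells. Values are medians of duplicate plates.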

NCI-H520 = tested on: NCI-H520
Procedure, shortened: as §1

RERF-LC-KJ = tested on: RERF-LC-KJ
Procedure, shortened: as §1

NCI-H1944 = tested on: NCI-H1944
Procedure, shortened: as §1

NCI-H727 = tested on: NCI-H727
Procedure, shortened: as §1

CAL-12T = tested on: CAL-12T
Procedure, shortened: as §1

HARA = tested on: HARA
Procedure, shortened: as §1

NCI-H838 = tested on: NCI-H838
Procedure, shortened: as §1

NCI-H661 = tested on: NCI-H661
Procedure, shortened: as §1

NCI-H2085 = tested on: NCI-H2085
Procedure, shortened: as §1

NCI-H1651 = tested on: NCI-H1651
Procedure, shortened: as §1

NCI-H1666 = tested on: NCI-H1666
Procedure, shortened: as §1

NCI-H1975 = tested on: NCI-H1975
Procedure, shortened: as §1

NCI-H1734 = tested on: NCI-H1734
Procedure, shortened: as §1

LOU-NH91 = tested on: LOU-NH91
Procedure, shortened: as §1

NCI-H647 = tested on: NCI-H647
Procedure, shortened: as §1

LCLC-103H = tested on: LCLC-103H
Procedure, shortened: as §1

NCI-H2126 = tested on: NCI-H2126
Procedure, shortened: as §1

BEN = tested on: BEN
Procedure, shortened: as §1

SW 900 = tested on: SW 900
Procedure, shortened: as §1

ABC-1 = tested on: ABC-1
Procedure, shortened: as §1

NCI-H460 = tested on: NCI-H460
Procedure, shortened: as §1

A-427 = tested on: A-427
Procedure, shortened: as §1

Structure (SMILES): Cc1csc(=NC2CCCCC2)n1/N=C/c1ccc(O)c(O)c1O [MIM1] + CCNC(=O)c1noc(-c2cc(C(C)C)c(O)cc2O)c1-c1ccc(CN2CCOCC2)cc1 [Luminespib] (partner 0.01 µM)
- relative viability (NCI-H596; first compound 0.2 µM): 1.03
- relative viability (NCI-H596; first compound 0.6325 µM): 0.879
- relative viability (NCI-H596; first compound 2 µM): 0.939
- relative viability (NCI-H596; first compound 6.325 µM): 0.918
- relative viability (NCI-H596; first compound 20 µM): 0.486
- relative viability (NCI-H520; first compound 0.2 µM): 0.208
- relative viability (NCI-H520; first compound 0.6325 µM): 0.259
- relative viability (NCI-H520; first compound 2 µM): 0.178
- relative viability (NCI-H520; first compound 6.325 µM): 0.274
- relative viability (NCI-H520; first compound 20 µM): 0.257
- relative viability (RERF-LC-KJ; first compound 0.2 µM): 1.21
- relative viability (RERF-LC-KJ; first compound 0.6325 µM): 1.26
- relative viability (RERF-LC-KJ; first compound 2 µM): 0.73
- relative viability (RERF-LC-KJ; first compound 6.325 µM): 0.416
- relative viability (RERF-LC-KJ; first compound 20 µM): 0.284
- relative viability (NCI-H1944; first compound 0.2 µM): 0.632
- relative viability (NCI-H1944; first compound 0.6325 µM): 0.823
- relative viability (NCI-H1944; first compound 2 µM): 0.466
- relative viability (NCI-H1944; first compound 6.325 µM): 0.517
- relative viability (NCI-H1944; first compound 20 µM): 0.568
- relative viability (NCI-H727; first compound 0.2 µM): 0.353
- relative viability (NCI-H727; first compound 0.6325 µM): 0.309
- relative viability (NCI-H727; first compound 2 µM): 0.386
- relative viability (NCI-H727; first compound 6.325 µM): 0.386
- relative viability (NCI-H727; first compound 20 µM): 0.392
- relative viability (CAL-12T; first compound 0.2 µM): 0.29
- relative viability (CAL-12T; first compound 0.6325 µM): 0.542
- relative viability (CAL-12T; first compound 2 µM): 0.522
- relative viability (CAL-12T; first compound 6.325 µM): 0.281
- relative viability (CAL-12T; first compound 20 µM): 0.328
- relative viability (HARA; first compound 0.2 µM): 0.866
- relative viability (HARA; first compound 2 µM): 0.776
- relative viability (HARA; first compound 6.325 µM): 0.251
- relative viability (HARA; first compound 20 µM): 0.0856
- relative viability (NCI-H838; first compound 0.2 µM): 0.372
- relative viability (NCI-H838; first compound 0.6325 µM): 0.317
- relative viability (NCI-H838; first compound 2 µM): 0.288
- relative viability (NCI-H838; first compound 6.325 µM): 0.267
- relative viability (NCI-H838; first compound 20 µM): 0.16
- relative viability (NCI-H661; first compound 0.2 µM): 0.92
- relative viability (NCI-H661; first compound 0.6325 µM): 0.928
- relative viability (NCI-H661; first compound 2 µM): 0.86
- relative viability (NCI-H661; first compound 6.325 µM): 0.576
- relative viability (NCI-H661; first compound 20 µM): 0.269
- relative viability (NCI-H2085; first compound 0.2 µM): 0.42
- relative viability (NCI-H2085; first compound 0.6325 µM): 0.466
- relative viability (NCI-H2085; first compound 2 µM): 0.455
- relative viability (NCI-H2085; first compound 6.325 µM): 0.442
- relative viability (NCI-H2085; first compound 20 µM): 0.404
- relative viability (NCI-H1651; first compound 0.2 µM): 0.876
- relative viability (NCI-H1651; first compound 0.6325 µM): 0.785
- relative viability (NCI-H1651; first compound 2 µM): 0.617
- relative viability (NCI-H1651; first compound 6.325 µM): 0.67
- relative viability (NCI-H1651; first compound 20 µM): 0.495
- relative viability (NCI-H1666; first compound 0.2 µM): 1.02
- relative viability (NCI-H1666; first compound 0.6325 µM): 1.13
- relative viability (NCI-H1666; first compound 2 µM): 1.02
- relative viability (NCI-H1666; first compound 6.325 µM): 0.884
- relative viability (NCI-H1666; first compound 20 µM): 0.767
- relative viability (NCI-H1975; first compound 0.2 µM): 0.202
- relative viability (NCI-H1975; first compound 0.6325 µM): 0.261
- relative viability (NCI-H1975; first compound 2 µM): 0.193
- relative viability (NCI-H1975; first compound 6.325 µM): 0.279
- relative viability (NCI-H1975; first compound 20 µM): 0.136
- relative viability (NCI-H1734; first compound 0.2 µM): 0.0909
- relative viability (NCI-H1734; first compound 0.6325 µM): 0.233
- relative viability (NCI-H1734; first compound 2 µM): 0.198
- relative viability (NCI-H1734; first compound 6.325 µM): 0.168
- relative viability (NCI-H1734; first compound 20 µM): 0.157
- relative viability (LOU-NH91; first compound 0.2 µM): 0.338
- relative viability (LOU-NH91; first compound 0.6325 µM): 0.338
- relative viability (LOU-NH91; first compound 2 µM): 0.32
- relative viability (LOU-NH91; first compound 6.325 µM): 0.271
- relative viability (LOU-NH91; first compound 20 µM): 0.268
- relative viability (NCI-H647; first compound 0.2 µM): 0.147
- relative viability (NCI-H647; first compound 0.6325 µM): 0.271
- relative viability (NCI-H647; first compound 2 µM): 0.18
- relative viability (NCI-H647; first compound 6.325 µM): 0.198
- relative viability (NCI-H647; first compound 20 µM): 0.0924
- relative viability (LCLC-103H; first compound 0.2 µM): 1.03
- relative viability (LCLC-103H; first compound 0.6325 µM): 0.908
- relative viability (LCLC-103H; first compound 2 µM): 0.908
- relative viability (LCLC-103H; first compound 6.325 µM): 0.632
- relative viability (LCLC-103H; first compound 20 µM): 0.419
- relative viability (NCI-H2126; first compound 0.2 µM): 0.891
- relative viability (NCI-H2126; first compound 0.6325 µM): 0.943
- relative viability (NCI-H2126; first compound 2 µM): 0.957
- relative viability (NCI-H2126; first compound 6.325 µM): 0.88
- relative viability (NCI-H2126; first compound 20 µM): 0.466
- relative viability (BEN; first compound 0.2 µM): 0.249
- relative viability (BEN; first compound 0.6325 µM): 1.24
- relative viability (BEN; first compound 2 µM): 0.36
- relative viability (BEN; first compound 6.325 µM): 0.329
- relative viability (BEN; first compound 20 µM): 0.173
- relative viability (SW 900; first compound 0.2 µM): 0.174
- relative viability (SW 900; first compound 0.6325 µM): 0.199
- relative viability (SW 900; first compound 2 µM): 0.19
- relative viability (SW 900; first compound 6.325 µM): 0.185
- relative viability (SW 900; first compound 20 µM): 0.2
- relative viability (ABC-1; first compound 0.2 µM): 0.499
- relative viability (ABC-1; first compound 0.6325 µM): 0.835
- relative viability (ABC-1; first compound 2 µM): 0.497
- relative viability (ABC-1; first compound 6.325 µM): 0.399
- relative viability (ABC-1; first compound 20 µM): 0.315
- relative viability (NCI-H460; first compound 0.2 µM): 0.0272
- relative viability (NCI-H460; first compound 0.6325 µM): 0.0322
- relative viability (NCI-H460; first compound 2 µM): 0.0432
- relative viability (NCI-H460; first compound 6.325 µM): 0.0284
- relative viability (NCI-H460; first compound 20 µM): 0.0278
- relative viability (A-427; first compound 0.2 µM): 0.832
- relative viability (A-427; first compound 0.6325 µM): 1.06
- relative viability (A-427; first compound 2 µM): 0.955
- relative viability (A-427; first compound 6.325 µM): 0.747
- relative viability (A-427; first compound 20 µM): 0.267
